# Measurements from ChEMBL document CHEMBL1201862, “PubChem BioAssay data set” (2004).
#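 Five compound concentrations were applied to cells in 96-well plates for 48 hours; endpoints were derived by simple linear interpolation of the resulting dose-response curve. The concentration for 50% growth inhibition is given as GI50.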 Activity calls are given as the source filed them. Rule as the data show it: active = GI50 up to about 1.1 µM and inactive = higher.
# Key:
# Assay in all cases: NCI-60 cell line screen, 48 h
# RXF 631 = test system: RXF 631
# XF498 = test system: XF498
# SNB-78 = test system: SNB-78
# LXFL 529 = test system: LXFL 529
# DMS-273 = test system: DMS-273
# DMS-114 = test system: DMS-114
# MDA-MB-231 = test system: MDA-MB-231
# BT-549 = test system: BT-549
# T47D = test system: T47D
Structure (SMILES),GI50 (RXF 631),GI50 (XF498),GI50 (SNB-78),GI50 (LXFL 529),GI50 (DMS-273),GI50 (DMS-114),GI50 (MDA-MB-231),GI50 (BT-549),GI50 (T47D)
COC(=O)[C@@]12C=CC(=O)[C@H]3C[C@@H](C(C(C)C)C1)[C@]32OC (some centres not stated),> 100 µM (inactive),> 100 µM (inactive),> 100 µM (inactive),> 100 µM (inactive),> 100 µM (inactive),> 100 µM (inactive),–,–,–
Cc1cc2c(=O)cc(-c3ccc(C(=O)O)cc3)oc2c(C(=O)O)c1C,> 100 µM (inactive),–,> 100 µM (inactive),> 100 µM (inactive),> 100 µM (inactive),> 100 µM (inactive),–,–,–
CC(C)(C)C1=CC(=NNC(=S)NCc2ccccc2)C=C(C(C)(C)C)C1=O,> 100 µM (inactive),> 100 µM (inactive),–,63.1 µM (inactive),> 100 µM (inactive),54.8 µM (inactive),–,–,–
COc1ccc(OC)c2c(C(=O)O)c(C(C)c3ccccc3)ccc12 (configuration not stated),> 100 µM (inactive),–,–,> 100 µM (inactive),> 100 µM (inactive),–,–,–,–
COC(=O)C(C(=O)C(=O)Nc1ccc(Br)cc1)c1nc2ccc(Cl)cc2nc1O (configuration not stated),> 100 µM (inactive),> 100 µM (inactive),> 100 µM (inactive),> 100 µM (inactive),> 70.6 µM (inactive),> 80 µM (inactive),–,–,–
CC1(C)SCc2nc3ncccc3n21,> 100 µM (inactive),> 100 µM (inactive),> 100 µM (inactive),> 100 µM (inactive),–,> 100 µM (inactive),–,–,–
COC1C(N)C(OC2C(Oc3cccc4c(O)c5c(=O)oc6ccc(C)c7c(=O)oc(c34)c5c67)OC(C)C(O)C2(C)O)OC(C)C1O (configuration not stated),0.0351 µM (active),< 0.0116 µM (active),0.0394 µM (active),< 0.0121 µM (active),< 0.01 µM (active),0.0229 µM (active),0.109 µM (active),0.0192 µM (active),0.0266 µM (active)
C[C@]12CCC[C@H](O)[C@H]1C[C@H](CO)CC2,> 100 µM (inactive),> 100 µM (inactive),–,> 100 µM (inactive),> 100 µM (inactive),–,–,–,–
COc1ccc2oc3cccc(NCCN(C)C)c3c(=O)c2c1,13.7 µM (inactive),14.5 µM (inactive),17.7 µM (inactive),13.1 µM (inactive),12.1 µM (inactive),12.9 µM (inactive),–,–,–
CCN(CC)Cc1cc(Nc2c3ccccc3nc3c4ccccc4n(C)c23)ccc1O,3.18 µM (inactive),4.84 µM (inactive),18.6 µM (inactive),4.8 µM (inactive),5.64 µM (inactive),6.37 µM (inactive),–,–,–
CCOC(=O)C1=C(NC(C)(C)C)OCC1=O,> 100 µM (inactive),> 100 µM (inactive),> 100 µM (inactive),> 100 µM (inactive),–,–,–,–,–
COc1cc2c(c(OC)c1OC)-c1ccc(SC)c(=O)cc1[C@@H](NC(=O)c1ccc(Cl)cc1)CC2,< 0.01 µM (active),–,–,< 0.01 µM (active),< 0.01 µM (active),< 0.01 µM (active),–,–,–
CN1C[C@@H]2CC(=O)CC[C@@H]2C[C@H]1C#N,> 100 µM (inactive),> 100 µM (inactive),–,> 100 µM (inactive),–,> 100 µM (inactive),–,–,–
O=C1CCC2(c3ccccc3)Nc3ccccc3N12 (configuration not stated),> 100 µM (inactive),> 100 µM (inactive),> 100 µM (inactive),> 100 µM (inactive),–,> 100 µM (inactive),–,–,–
NC(=O)COC(=O)c1c(Cl)nc2sccn12,> 100 µM (inactive),> 100 µM (inactive),> 100 µM (inactive),> 65.5 µM (inactive),81.7 µM (inactive),> 52.1 µM (inactive),–,–,–
CCC1CN2CCc3cc(OC)c(OC)cc3C2CC1CC1c2cc(OC)c(OC)cc2CCN1C(=O)C1CCCN1 (configuration not stated),28.7 µM (inactive),18.8 µM (inactive),47.4 µM (inactive),24.5 µM (inactive),35.3 µM (inactive),–,–,–,–
N#Cc1ccccc1Nc1ccccc1S,37.8 µM (inactive),18 µM (inactive),37.6 µM (inactive),22.5 µM (inactive),34.5 µM (inactive),21.8 µM (inactive),–,–,–
OCCCCCCOc1ccc(-c2cc(-c3ccccn3)nc(-c3ccccn3)c2)cc1,–,1.51 µM (inactive),0.524 µM (active),0.242 µM (active),0.211 µM (active),0.207 µM (active),–,0.149 µM (active),0.148 µM (active)
C=CCc1cc2cccc(OC)c2oc1=O,> 100 µM (inactive),7.24 µM (inactive),> 100 µM (inactive),57 µM (inactive),> 100 µM (inactive),80.5 µM (inactive),–,–,–
CC(C)c1cccc(C(C)C)c1NC(=O)/C(Cc1nc2ccc(Cl)cc2nc1O)=N\NC(=O)C[N+](C)(C)C,> 100 µM (inactive),–,–,–,–,> 100 µM (inactive),–,–,–
O=C1NC2C(O)CCCCC2C12CCCCC2 (configuration not stated),> 100 µM (inactive),> 100 µM (inactive),> 100 µM (inactive),> 100 µM (inactive),> 100 µM (inactive),> 100 µM (inactive),–,–,–
COC(=O)C(=Cc1cc(OC)ccc1OC)C(=O)OC,32 µM (inactive),25.5 µM (inactive),34.1 µM (inactive),16.6 µM (inactive),32.3 µM (inactive),20.8 µM (inactive),–,–,–
CCOC(OCC)C(CC)[Se]c1ccccc1 (configuration not stated),8.49 µM (inactive),> 100 µM (inactive),64.3 µM (inactive),35.6 µM (inactive),14.1 µM (inactive),2.82 µM (inactive),–,–,–
